Values of other authors, collected in US8314091B2, “N-benzyl,N'-arylcarbonylpiperazine derivatives” (MSD OSS B.V., priority 2007, dated 2012).

Tests used:
[1] = test system: tumours in an animal model of prostate cancer
[2] = test system: vascular smooth muscle cell proliferation and neointima formation; settings: following balloon injury, in vitro and in vivo
β-amyloid = settings: in vivo

SMILES: O=S(=O)(c1ccccc1)N(CC(F)(F)F)c1ccc(C(O)(C(F)(F)F)C(F)(F)F)cc1 [Example T0901317]
- effect on progression of tumours [1]: delayed progression of tumours
- effect on vascular smooth muscle cell proliferation and neointima formation [2]: inhibit vascular smooth muscle cell proliferation and neointima formation
- deposition of β-amyloid (β-amyloid): lower deposition of β-amyloid
- memory (β-amyloid): improve memory
